Paper PMC6092045 (Chemical communications (Cambridge, England), 2018)

Target: T1, ERAAP (ER aminopeptidase associated with antigen processing) (Mus musculus, UniProt Q9EQH2)
T1 sequence (Q9EQH2 1-930): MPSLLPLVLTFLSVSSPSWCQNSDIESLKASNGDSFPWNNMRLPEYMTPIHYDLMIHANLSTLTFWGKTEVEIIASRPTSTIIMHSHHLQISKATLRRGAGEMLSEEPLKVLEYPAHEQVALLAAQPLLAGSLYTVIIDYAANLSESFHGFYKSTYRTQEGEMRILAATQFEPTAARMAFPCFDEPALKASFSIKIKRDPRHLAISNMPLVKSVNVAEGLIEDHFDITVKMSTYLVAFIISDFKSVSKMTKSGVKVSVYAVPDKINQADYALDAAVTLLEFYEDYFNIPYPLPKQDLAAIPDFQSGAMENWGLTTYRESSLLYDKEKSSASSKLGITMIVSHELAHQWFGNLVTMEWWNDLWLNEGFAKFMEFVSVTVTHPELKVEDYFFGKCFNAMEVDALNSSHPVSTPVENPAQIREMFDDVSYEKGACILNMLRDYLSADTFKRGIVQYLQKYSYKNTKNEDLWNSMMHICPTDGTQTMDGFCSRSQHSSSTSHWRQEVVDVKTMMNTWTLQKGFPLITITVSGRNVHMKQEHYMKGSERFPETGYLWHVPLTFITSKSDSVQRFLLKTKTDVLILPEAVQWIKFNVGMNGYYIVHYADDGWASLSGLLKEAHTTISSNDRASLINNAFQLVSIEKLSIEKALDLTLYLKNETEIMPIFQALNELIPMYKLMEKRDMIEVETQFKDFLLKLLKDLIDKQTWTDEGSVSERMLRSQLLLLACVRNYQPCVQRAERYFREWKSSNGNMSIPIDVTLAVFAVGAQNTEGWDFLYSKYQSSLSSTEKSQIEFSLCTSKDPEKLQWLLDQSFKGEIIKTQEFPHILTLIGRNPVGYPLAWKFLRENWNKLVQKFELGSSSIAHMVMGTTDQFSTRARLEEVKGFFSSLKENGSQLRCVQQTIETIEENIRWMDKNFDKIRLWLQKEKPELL
Assay: fluorogenic Ep peptide cleavage assay, dose-response
Type: biochemical

C#CC(=O)c1ccc(Br)cc1F [A, 1-(4-bromo-2-fluorophenyl)prop-2-yn-1-one]
IC50: 23 µM
